Article PMC11391413 (Chemical Science, 2024)
No end group written: not given here.

target: T1, full-length GRB2, KD1 (NSH3) (Homo sapiens, UniProt P62993); assay: ITC of full-length GRB2 with SOS1 PRMs, KD1; type: binding; settings: not given
T1 construct: further corroborated by our ITC analysis of the full-length GRB2; His6 (N, cleaved yes); TEV protease cleavage site (N, cleaved yes); made in house; host or cells: Escherichia coli BL21 (DE3) pLysS

| Kd [µM] | Compound |
| --- | --- |
| 71.5 ± 24.2 | CC(C)C[C@H](NC(=O)[C@H](CCCCN)NC(=O)[C@@H]1CCCN1)C(=O)N1CCC[C@H]1C(=O)N1CCC[C@H]1C(=O)N[C@@H](CCCCN)C(=O)N[C@H](C(=O)N[C@@H](Cc1ccc(O)cc1)C(=O)N[C@@H](CCCCN)C(=O)N[C@@H](CCCNC(=N)N)C(=O)N[C@@H](CCC(=O)O)C(=O)N[C@@H](Cc1c[nH]cn1)C(=O)O)[C@@H](C)O [S10] |
| 15.9 ± 1.5 | DSPPAIPPRQPT [S5] |
| 40.1 ± 6.5 | ESPPLLPPREPV [S6] |
| 35.6 ± 4.2 | IAGPPVPPRQST [S9] |
| 65.1 ± 23.7 | PKPLPRFPKK [S2] |
| 123 ± 18.6 | PSPHGTRRHLPSPP [S8] |

target: NSH3 domain of full-length GRB2 (Homo sapiens, UniProt P62993); assay: NMR titration (1H-15N HSQC chemical shift perturbation) of 15N-labelled full-length GRB2 with SOS1 PRMs, KD1; settings: read-out: K D (μM) from full-length GRB2, K D1 (NSH3), global fit of residues with maximum CSPs over 0.03 ppm, independent two-site binding model, GRB2 approx. 200 to 270 μM, 20 mM sodium phosphate, 25 °C, bootstrap 1000 iterations
Protocol: Models with two binding sites basically require a total of four dissociation constants (KD1–KD4). The two-site independent binding model equates KD3 and KD4 with KD2 and KD1, respectively. In contrast, the two-site cooperative binding model (two-site dependent model) differentiates the four dissociation constants, with the assumption that KD3 is modulated by another ligand binding to KD2, as a function of KD2 and a modulation factor α. KD4 is then calculated from KD1 and KD2, as shown in the equation provided in the figure (the detailed models and theory are described in Materials and methods). […] The calculations were performed using only residues showing the maximum CSPs over 0.03 ppm.
2D ^1H–^15N HSQC spectra were measured at each titration point. Chemical shift differences, Δ, were analysed by Δ = ((ΔH)^2 + (ΔN/5)^2)^1/2, where ΔH and ΔN are the differences in ppm for the backbone amide ^1H and ^15N chemical shifts between the two conditions. 1 ppm corresponds to 600.13 Hz for ^1H and 60.81 Hz for ^15N.
The dissociation constants for each residue were calculated by non-linear regression analysis with the equation for the single state model:[33] […]
In all models, the non-linear least-squares fitting was performed by the Levenberg–Marquardt algorithm. The precision of the model parameters was assessed by conducting the bootstrap resampling on the residuals of the regression model. […]

| Kd [µM] | Compound |
| --- | --- |
| 483 ± 45.7 | CC(C)C[C@H](NC(=O)[C@H](CCCCN)NC(=O)[C@@H]1CCCN1)C(=O)N1CCC[C@H]1C(=O)N1CCC[C@H]1C(=O)N[C@@H](CCCCN)C(=O)N[C@H](C(=O)N[C@@H](Cc1ccc(O)cc1)C(=O)N[C@@H](CCCCN)C(=O)N[C@@H](CCCNC(=N)N)C(=O)N[C@@H](CCC(=O)O)C(=O)N[C@@H](Cc1c[nH]cn1)C(=O)O)[C@@H](C)O [S10] |
